Assay results reported in article PMC11850616, “Nanomolar inhibitor of the galectin-8 N-terminal domain binds via a non-canonical cation-π interaction” (Communications Chemistry, 2025).
Like-named read-outs stand apart in the source and are kept apart here.

Tests used:
Gal-3 = molecular target: T1, Gal-3 (Homo sapiens, UniProt P17931); experiment: competitive fluorescence polarisation assay, Gal-3; format: binding; design: key to Kd (Galectin-3): n. s.: n.s. = non-soluble at tested concentration; n. b.: n.b. = non-binding up to the highest tested concentration of 1500 µM; details: for Kd (Galectin-3) / Kd: competitive FP; for Gal-3 selectivity ratio Kd (Gal-3)/Kd (Gal-8N): ratio of FP Kd values
T1 construct: made in house
Description: (§1) Human galectins-1, -3, and -8N were expressed and purified as described previously[8],[23],[24]. Competitive fluorescence polarization assays were performed with a PHERAstar FS plate reader with software PHERAstar Mars version 2.10 R3 (BMG, Offenburg, Germany) and Tecan Spark multimode microplate reader (Tecan Trading AG, Switzerland), where a fluorescence anisotropy of fluorescent-tagged probes was measured by excitation at 485 nm and emission at 520 nm. Experiments were performed at 20 °C with Gal-1 at 0.5 µM, Gal-3 at 0.2 µM, and Gal-8N at 0.4 µM. Fluorescent probes used for experiments were 3,3′-dideoxy-3-[4-(fluorescein-5-yl-carbonylaminomethyl)-1H-1,2,3-triazol-1-yl]-3′-(3,5-di-methoxybenzamido)-1,1′-sulfanediyl-di-β-D-galactopyranoside at 0.02 µM for Gal-1 and -3 and 2-(fluorescein-5-yl-carbonylamino)ethyl β-D-galactopyranosyl(1-4)-2-acetamido-2-deoxy-β-D-glucopyranosyl(1–3)-β-D-galactopyranosyl(1–4)-β-D-glucopyranoside at 0.1 µM for Gal-8N in each well. Compounds were first dissolved in pure DMSO at 20 mM concentration and later diluted in 5% DMSO in PBS solution to 5-7 different concentrations. Each concentration was tested in duplicate. The highest inhibitor concentrations tested were 1.5 mM. The average values of Kd and SEM (standard error mean) were calculated from 4 to 8 duplicate measurements, showing 10–90% inhibition.

[1] = molecular target: T2, Gal-8N (galectin-8 N-terminal domain) (Homo sapiens, UniProt O00214); experiment: competitive fluorescence polarisation assay, Gal-8N; format: binding; design: key to Kd (Galectin-8N): n. s.: n.s. = non-soluble at tested concentration; n. b.: n.b. = non-binding up to the highest tested concentration of 1500 µM; details: competitive FP
T2 construct: made in house
T2 sequence (O00214 19-152 limits assumed): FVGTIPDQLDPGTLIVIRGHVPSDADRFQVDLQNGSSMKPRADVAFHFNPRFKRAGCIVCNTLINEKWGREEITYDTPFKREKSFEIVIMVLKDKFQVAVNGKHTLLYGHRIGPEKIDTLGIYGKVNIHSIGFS
Description: as §1

Gal-8C = molecular target: T3, Gal-8C (Homo sapiens, UniProt O00214); experiment: competitive fluorescence polarisation assay, Gal-8C; format: binding; details: for Kd: competitive FP, mean ± SEM of n = 4 to 8; for Gal-8C selectivity ratio Kd (Gal-8C)/Kd (Gal-8N): ratio of FP Kd values
T3 construct: than to the C-terminal domain (Gal-8C)
T3 sequence (O00214 187-317 limits assumed): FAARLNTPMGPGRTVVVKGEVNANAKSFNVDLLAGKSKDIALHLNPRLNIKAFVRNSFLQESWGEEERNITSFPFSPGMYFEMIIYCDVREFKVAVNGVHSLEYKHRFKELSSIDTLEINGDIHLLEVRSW

Gal-1 = molecular target: T4, Gal-1 (Homo sapiens, UniProt P09382); experiment: competitive fluorescence polarisation assay, Gal-1; format: binding; details: for Kd: competitive FP, mean ± SEM of n = 4 to 8, 20 °C; for Gal-1 selectivity ratio Kd (Gal-1)/Kd (Gal-8N): ratio of FP Kd values
T4 construct: made in house
Description: as §1

Gal-8N = molecular target: T5, Gal-8N (Homo sapiens, UniProt O00214); experiment: ligand efficiency (LE) and ligand-lipophilicity efficiency (LLE) calculations; details: for LLE: from Gal-8N Kd and clogP; for LE: from Gal-8N Kd and number of non-hydrogen atoms
T5 construct: consisting of residues 4-158 was produced by Lund Protein Production Platform; made in house; host or cells: E. coli TUNER(DE3)
T5 sequence (O00214 4-158): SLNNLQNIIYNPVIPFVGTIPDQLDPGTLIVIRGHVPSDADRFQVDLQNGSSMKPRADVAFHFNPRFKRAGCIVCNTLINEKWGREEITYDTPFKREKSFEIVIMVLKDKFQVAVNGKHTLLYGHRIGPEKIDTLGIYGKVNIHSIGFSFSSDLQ

[2] = ester compounds, highest tested concentration 1500 µM
[3] = ester compounds, highest tested concentration 1500 µM, read-out: Kd (Galectin-3)
[4] = ester compounds, highest tested concentration 1500 µM, read-out: Kd (Galectin-8N)
[5] = mean ± SEM of n = 4 to 8, 20 °C, read-out: Kd Gal-3
[6] = mean ± SEM of n = 4 to 8, 20 °C, read-out: Kd Gal-8N

T4 sequence (P09382 whole entry): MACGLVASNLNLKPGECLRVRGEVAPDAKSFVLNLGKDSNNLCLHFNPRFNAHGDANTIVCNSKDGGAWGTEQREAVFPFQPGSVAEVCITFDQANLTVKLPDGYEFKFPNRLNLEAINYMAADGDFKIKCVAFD
T1 sequence (P17931 whole entry): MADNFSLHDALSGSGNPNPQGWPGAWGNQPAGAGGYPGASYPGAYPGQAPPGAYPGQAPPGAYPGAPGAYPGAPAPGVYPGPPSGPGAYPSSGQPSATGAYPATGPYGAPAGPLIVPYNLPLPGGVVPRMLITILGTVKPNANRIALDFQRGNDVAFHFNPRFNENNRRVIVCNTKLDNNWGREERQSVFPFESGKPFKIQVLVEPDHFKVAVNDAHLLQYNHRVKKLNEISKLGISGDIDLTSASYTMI

| SMILES | Kd (Galectin-3) (Gal-3; [2]) | Kd (Galectin-8N) [1, 2] | Kd [1, 4] | Kd (Gal-3; [5]) | Gal-3 selectivity ratio Kd (Gal-3)/Kd (Gal-8N) (Gal-3) | Kd [1, 6] | Kd (Gal-8C) | Gal-8C selectivity ratio Kd (Gal-8C)/Kd (Gal-8N) (Gal-8C) | Kd (Gal-1) | Gal-1 selectivity ratio Kd (Gal-1)/Kd (Gal-8N) (Gal-1) | LLE (Gal-8N) | LE (Gal-8N) | further results |
| --- | --- | --- | --- | --- | --- | --- | --- | --- | --- | --- | --- | --- | --- |
| COC(=O)c1ccc2nc(CO[C@H]3[C@@H](O)[C@@H](CO)O[C@H](Sc4ccc(Cl)c(Cl)c4)[C@@H]3OCc3ccccc3)n(C)c2c1 [Compound 7a] | n. s. | n. s. |  |  |  |  |  |  |  |  |  |  |  |
| COC(=O)c1ccc2nc(CO[C@H]3[C@@H](O)[C@@H](CO)O[C@H](Sc4ccc(Cl)c(Cl)c4)[C@@H]3OCc3cccc(C)c3)n(C)c2c1 [Compound 7b] | n. s. | n. s. |  |  |  |  |  |  |  |  |  |  |  |
| COC(=O)c1ccc2nc(CO[C@H]3[C@@H](O)[C@@H](CO)O[C@H](Sc4ccc(Cl)c(Cl)c4)[C@@H]3OCc3ccc(C)cc3)n(C)c2c1 [Compound 7c] | n. s. | n. s. |  |  |  |  |  |  |  |  |  |  |  |
| COC(=O)c1ccc2nc(CO[C@H]3[C@@H](O)[C@@H](CO)O[C@H](Sc4ccc(Cl)c(Cl)c4)[C@@H]3OCc3ccc(F)cc3)n(C)c2c1 [Compound 7d] | n. s. | n. s. |  |  |  |  |  |  |  |  |  |  |  |
| COC(=O)c1ccc2nc(CO[C@H]3[C@@H](O)[C@@H](CO)O[C@H](Sc4ccc(Cl)c(Cl)c4)[C@@H]3OCc3ccc(Cl)c(Cl)c3)n(C)c2c1 [Compound 7e] |  |  | > 1500 µM |  |  |  |  |  |  |  |  |  | Kd (Gal-3; [3]): > 1500 µM |
| COC(=O)c1ccc2nc(CO[C@H]3[C@@H](O)[C@@H](CO)O[C@H](Sc4ccc(Cl)c(Cl)c4)[C@@H]3OCc3cccc(Cl)c3)n(C)c2c1 [Compound 7f] |  |  | > 1500 µM |  |  |  |  |  |  |  |  |  | Kd (Gal-3; [3]): > 1500 µM |
| Cn1c(CO[C@H]2[C@@H](O)[C@@H](CO)O[C@H](Sc3ccc(Cl)c(Cl)c3)[C@@H]2OCc2ccccc2)nc2ccc(C(=O)O)cc21 [Compound 8a] |  |  |  | 3.7 ± 0.5 µM | 2.5 | 1.5 ± 0.13 µM | 320 ± 12 µM | 213 | 14 ± 0.82 µM | 9.4 | 0.382 | 0.195 (kcal/mol)/heavy atom |  |
| Cc1cccc(CO[C@@H]2[C@@H](OCc3nc4ccc(C(=O)O)cc4n3C)[C@@H](O)[C@@H](CO)O[C@@H]2Sc2ccc(Cl)c(Cl)c2)c1 [Compound 8b] |  |  |  | 8.2 ± 0.7 µM | 3.9 | 2.1 ± 0.1 µM | 303 ± 19 µM | 144 | 19 ± 0.67 µM | 9 | -0.257 | 0.185 (kcal/mol)/heavy atom |  |
| Cc1ccc(CO[C@@H]2[C@@H](OCc3nc4ccc(C(=O)O)cc4n3C)[C@@H](O)[C@@H](CO)O[C@@H]2Sc2ccc(Cl)c(Cl)c2)cc1 [Compound 8c] |  |  |  | 5.9 ± 0.6 µM | 2.8 | 2.1 ± 0.15 µM | 256 ± 24 µM | 122 | 16 ± 0.75 µM | 7.6 | -0.259 | 0.185 (kcal/mol)/heavy atom |  |
| Cn1c(CO[C@H]2[C@@H](O)[C@@H](CO)O[C@H](Sc3ccc(Cl)c(Cl)c3)[C@@H]2OCc2ccc(F)cc2)nc2ccc(C(=O)O)cc21 [Compound 8d] |  |  |  | 4.2 ± 0.6 µM | 2.6 | 1.6 ± 0.06 µM | 301 ± 28 µM | 188 | 14 ± 1.2 µM | 8.8 | 0.203 | 0.189 (kcal/mol)/heavy atom |  |
| Cn1c(CO[C@H]2[C@@H](O)[C@@H](CO)O[C@H](Sc3ccc(Cl)c(Cl)c3)[C@@H]2OCc2ccc(Cl)c(Cl)c2)nc2ccc(C(=O)O)cc21 [Compound 8e] |  |  |  | 12 ± 3 µM | 2.8 | 4.3 ± 0.4 µM | 577 ± 4 µM | 134 | 20 ± 0.84 µM | 4.7 | -1.38 | 0.171 (kcal/mol)/heavy atom |  |
| Cn1c(CO[C@H]2[C@@H](O)[C@@H](CO)O[C@H](Sc3ccc(Cl)c(Cl)c3)[C@@H]2OCc2cccc(Cl)c2)nc2ccc(C(=O)O)cc21 [Compound 8f] |  |  |  | 5.8 ± 0.7 µM | 3.2 | 1.8 ± 0.18 µM | 225 ± 37 µM | 125 | 15 ± 1.3 µM | 8.3 | -0.422 | 0.187 (kcal/mol)/heavy atom |  |
| C#CCO[C@@H]1[C@@H](OCc2nc3ccc(C(=O)OC)cc3n2C)[C@@H](O)[C@@H](CO)O[C@@H]1Sc1ccc(Cl)c(Cl)c1 [Compound 10] | n. s. |  | 275 ± 5 µM |  |  |  |  |  |  |  |  |  |  |
| COC(=O)c1ccccc1-n1cc(CO[C@@H]2[C@@H](OCc3nc4ccc(C(=O)O)cc4n3C)[C@@H](O)[C@@H](CO)O[C@@H]2Sc2ccc(Cl)c(Cl)c2)nn1 [Compound 15a] |  |  |  | 4.7 ± 1 µM | 1.3 | 3.5 ± 0.37 µM | 355 ± 57 µM | 101 | 69 ± 9.5 µM | 19.7 | 0.182 | 0.149 (kcal/mol)/heavy atom |  |
| COC(=O)c1ccc2nc(CO[C@H]3[C@@H](O)[C@@H](CO)O[C@H](Sc4ccc(Cl)c(Cl)c4)[C@@H]3OCC3CCCCC3)n(C)c2c1 [Compound 18] | n. s. | n. s. |  |  |  |  |  |  |  |  |  |  |  |
| COC(=O)c1ccc2nc(CO[C@H]3[C@@H](O)[C@@H](CO)O[C@H](Sc4ccc(Cl)c(Cl)c4)[C@@H]3OCC3CC3)n(C)c2c1 [Compound 21] | n. s. |  | > 1500 µM |  |  |  |  |  |  |  |  |  |  |
| COC(=O)c1ccc2nc(CO[C@H]3[C@@H](O)[C@@H](CO)O[C@H](Sc4ccc(Cl)c(Cl)c4)[C@@H]3OCC3CCC3)n(C)c2c1 [Compound 24] | n. s. | n. s. |  |  |  |  |  |  |  |  |  |  |  |
| COC(=O)c1ccc2nc(CO[C@H]3[C@@H](O)[C@@H](CO)O[C@H](Sc4ccc(Cl)c(Cl)c4)[C@@H]3OCC(=O)OC(C)(C)C)n(C)c2c1 [Compound 27] | n. s. |  | 201.7 ± 1.3 µM |  |  |  |  |  |  |  |  |  |  |
| COC(=O)c1ccc2nc(CO[C@H]3[C@@H](O)[C@@H](CO)O[C@H](Sc4ccc(Cl)c(Cl)c4)[C@@H]3OCC(=O)O)n(C)c2c1 [Compound 28] |  |  | 7.7 ± 0.3 µM |  |  |  |  |  | 44.7 ± 4.9 µM |  |  |  | Kd (Gal-3; [3]): 8.5 ± 1.5 µM |
| COC(=O)c1ccc2nc(CO[C@H]3[C@@H](O)[C@@H](CO)O[C@H](Sc4ccc(Cl)c(Cl)c4)[C@@H]3OC)n(C)c2c1 [Compound 31] |  | n. s. |  |  |  |  |  |  |  |  |  |  | Kd (Gal-3; [3]): 109 ± 31 µM |
